Assay results taken from ChEMBL document CHEMBL1129124, “Thromboxane modulating agents. 2. Thromboxane receptor antagonists derived from the thromboxane synthase inhibitor dazmegrel” (Bioorg Med Chem Lett, 1996).

Tests used:
Thromboxane A2 receptor = biological target: T1, Thromboxane A2 receptor (Rattus norvegicus, UniProt P34978); assay: Compound was tested for TXA2 receptor antagonism by measuring its ability to inhibit contraction of rat aorta induced by the stable TXA2 agonist U-46,619 at 1 umol; format: functional, tissue-based; settings: read-out: pA2 (converted)
T1 sequence (P34978 whole entry): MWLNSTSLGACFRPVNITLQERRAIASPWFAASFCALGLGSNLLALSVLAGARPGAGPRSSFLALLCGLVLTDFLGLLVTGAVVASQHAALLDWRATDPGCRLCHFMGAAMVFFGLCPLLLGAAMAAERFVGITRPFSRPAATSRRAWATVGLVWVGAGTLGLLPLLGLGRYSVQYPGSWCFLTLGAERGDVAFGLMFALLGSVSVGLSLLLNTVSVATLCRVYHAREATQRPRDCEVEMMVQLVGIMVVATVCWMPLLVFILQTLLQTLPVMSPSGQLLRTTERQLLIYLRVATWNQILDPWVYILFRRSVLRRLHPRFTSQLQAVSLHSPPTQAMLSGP

Thromboxane-A synthase = biological target: T2, Thromboxane-A synthase (Homo sapiens, UniProt P24557); assay: Inhibitory activity against human platelet microsomal TXA2 synthase
T2 sequence (P24557 whole entry): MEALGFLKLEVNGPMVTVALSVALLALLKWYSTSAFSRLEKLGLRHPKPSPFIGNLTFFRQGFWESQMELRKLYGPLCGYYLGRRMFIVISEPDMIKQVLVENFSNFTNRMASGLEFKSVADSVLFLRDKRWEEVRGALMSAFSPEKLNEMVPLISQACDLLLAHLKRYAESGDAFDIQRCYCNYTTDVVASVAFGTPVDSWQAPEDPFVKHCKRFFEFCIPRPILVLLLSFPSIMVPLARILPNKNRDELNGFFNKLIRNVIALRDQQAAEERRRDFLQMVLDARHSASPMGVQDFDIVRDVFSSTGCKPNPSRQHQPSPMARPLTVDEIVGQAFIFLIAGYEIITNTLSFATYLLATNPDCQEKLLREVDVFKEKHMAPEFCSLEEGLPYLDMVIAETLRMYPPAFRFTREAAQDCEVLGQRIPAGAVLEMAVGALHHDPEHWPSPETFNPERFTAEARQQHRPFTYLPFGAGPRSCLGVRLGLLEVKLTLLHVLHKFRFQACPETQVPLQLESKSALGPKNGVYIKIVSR

SMILES	Kb (Thromboxane A2 receptor)	IC50 (Thromboxane-A synthase)
O=C(O)CCn1cc(Cn2ccnc2)c2cc(NS(=O)(=O)c3ccc(F)cc3)ccc21	6.31 nM	34 nM
O=C(O)CCn1ccc2cc(NS(=O)(=O)c3ccc(F)cc3)ccc21	3.72 nM	–
COc1ccc(S(=O)(=O)Nc2ccc3c(c2)c(Cc2ccc(F)cc2)cn3CCC(=O)O)cc1	0.174 nM	–
O=C(O)CCn1cc(Cc2ccc(F)cc2)c2cc(NS(=O)(=O)c3ccc(Cl)cc3)ccc21	0.234 nM	–
O=C(O)CCn1cc(Cc2ccc(F)cc2)c2cc(NS(=O)(=O)c3ccccc3)ccc21	0.676 nM	–
O=C(O)CCCc1ccc(NS(=O)(=O)c2ccc(Cl)cc2)cc1	100 nM	–
Cc1c(Cn2ccnc2)c2cc(NS(=O)(=O)c3ccc(F)cc3)ccc2n1CCC(=O)O	3800 nM	19 nM
Cc1ccc(S(=O)(=O)Nc2ccc3c(c2)c(Cc2ccc(F)cc2)cn3CCC(=O)O)cc1	0.269 nM	–
O=C(O)CCn1ccc2cc(NS(=O)(=O)c3ccc(Cl)cc3)ccc21	2.75 nM	–
O=C(O)CCn1cc(Cc2cccnc2)c2cc(NS(=O)(=O)c3ccc(F)cc3)ccc21	1.41 nM	48 nM
O=C(O)CCn1cc(Cc2ccc(F)cc2)c2cc(NS(=O)(=O)c3ccc(F)cc3)ccc21	0.479 nM	–
Cc1c(Cn2ccnc2)c2ccccc2n1CCC(=O)O [DAZMEGREL]	> 1000 nM	–
